Assay results published in patent publication US8372854B2, “Pyrrolo[2,3-D]pyrimidine compounds” (Pfizer Inc., priority 2009, dated 2013).

Legend:
Assay type in all cases: biochemical
JAK1 = molecular target: T1, JAK1 (Homo sapiens, UniProt P23458); assay: JAK enzymatic assay (peptide mobility shift), JAK1; settings: recombinant JAK1 20 nM, ATP 40 μM, 1 μM IRS-1 peptide, 240 minutes
T1 construct: purchased Invitrogen Corporation, Madison, Wis; PV4775
Procedure, shortened: (§1)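 Caliper mobility-shift assay of peptide phosphorylation (1 μM peptide) in pH 7.4 HEPES with MgCl2, BSA, Tween-20 and 2% DMSO. JAK1 used 20 nM enzyme, 40 μM ATP, IRS-1 peptide, 240 min; JAK2 used 2 nM, 4 μM ATP, JAKtide, 150 min; JAK3 used 1 nM, 4 μM ATP, JAKtide, 90 min. IC50s came from 11-point 4-parameter fits.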

JAK2 = molecular target: T2, JAK2 (Homo sapiens, UniProt O60674); assay: JAK enzymatic assay (peptide mobility shift), JAK2; settings: recombinant JAK2 2 nM, ATP 4 μM, 1 μM JAKtide peptide, 150 minutes
T2 construct: purchased Invitrogen Corporation, Madison, Wis; PV4210
T2 sequence (O60674 whole entry): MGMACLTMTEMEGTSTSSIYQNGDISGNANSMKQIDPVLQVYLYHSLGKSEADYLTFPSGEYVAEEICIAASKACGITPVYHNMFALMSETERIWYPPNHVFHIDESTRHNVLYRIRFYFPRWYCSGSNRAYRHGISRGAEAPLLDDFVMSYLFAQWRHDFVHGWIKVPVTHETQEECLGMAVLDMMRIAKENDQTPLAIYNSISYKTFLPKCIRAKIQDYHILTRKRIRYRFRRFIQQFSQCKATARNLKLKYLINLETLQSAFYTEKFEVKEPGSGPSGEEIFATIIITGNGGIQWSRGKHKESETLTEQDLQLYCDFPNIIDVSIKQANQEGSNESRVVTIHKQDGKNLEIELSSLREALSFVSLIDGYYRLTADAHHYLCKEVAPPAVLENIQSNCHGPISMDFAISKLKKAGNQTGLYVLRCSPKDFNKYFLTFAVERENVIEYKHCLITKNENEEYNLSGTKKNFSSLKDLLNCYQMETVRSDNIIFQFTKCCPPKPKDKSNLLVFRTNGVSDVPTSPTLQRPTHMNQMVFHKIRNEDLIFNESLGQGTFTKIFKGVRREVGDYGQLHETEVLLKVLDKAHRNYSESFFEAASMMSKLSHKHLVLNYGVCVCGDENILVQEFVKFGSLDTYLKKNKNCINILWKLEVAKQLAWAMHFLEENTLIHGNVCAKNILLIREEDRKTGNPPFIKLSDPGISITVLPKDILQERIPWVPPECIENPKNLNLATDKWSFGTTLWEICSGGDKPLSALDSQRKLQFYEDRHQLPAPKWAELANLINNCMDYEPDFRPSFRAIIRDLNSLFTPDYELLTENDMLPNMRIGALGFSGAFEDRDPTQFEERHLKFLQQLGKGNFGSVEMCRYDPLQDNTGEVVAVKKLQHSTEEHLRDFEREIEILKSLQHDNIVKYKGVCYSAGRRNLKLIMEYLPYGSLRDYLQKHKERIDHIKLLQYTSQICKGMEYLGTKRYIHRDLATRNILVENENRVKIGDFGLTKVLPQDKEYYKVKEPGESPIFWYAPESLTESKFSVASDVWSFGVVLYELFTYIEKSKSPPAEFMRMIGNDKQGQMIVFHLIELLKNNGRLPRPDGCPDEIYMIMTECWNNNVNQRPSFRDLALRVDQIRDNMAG
Procedure, shortened: as §1

JAK3 = molecular target: T3, JAK3 (Homo sapiens, UniProt P52333); assay: JAK enzymatic assay (peptide mobility shift), JAK3; settings: recombinant JAK3 1 nM, ATP 4 μM, 1 μM JAKtide peptide, 90 minutes
T3 construct: purchased Invitrogen Corporation, Madison, Wis; PV3855
T3 sequence (P52333 1-1124): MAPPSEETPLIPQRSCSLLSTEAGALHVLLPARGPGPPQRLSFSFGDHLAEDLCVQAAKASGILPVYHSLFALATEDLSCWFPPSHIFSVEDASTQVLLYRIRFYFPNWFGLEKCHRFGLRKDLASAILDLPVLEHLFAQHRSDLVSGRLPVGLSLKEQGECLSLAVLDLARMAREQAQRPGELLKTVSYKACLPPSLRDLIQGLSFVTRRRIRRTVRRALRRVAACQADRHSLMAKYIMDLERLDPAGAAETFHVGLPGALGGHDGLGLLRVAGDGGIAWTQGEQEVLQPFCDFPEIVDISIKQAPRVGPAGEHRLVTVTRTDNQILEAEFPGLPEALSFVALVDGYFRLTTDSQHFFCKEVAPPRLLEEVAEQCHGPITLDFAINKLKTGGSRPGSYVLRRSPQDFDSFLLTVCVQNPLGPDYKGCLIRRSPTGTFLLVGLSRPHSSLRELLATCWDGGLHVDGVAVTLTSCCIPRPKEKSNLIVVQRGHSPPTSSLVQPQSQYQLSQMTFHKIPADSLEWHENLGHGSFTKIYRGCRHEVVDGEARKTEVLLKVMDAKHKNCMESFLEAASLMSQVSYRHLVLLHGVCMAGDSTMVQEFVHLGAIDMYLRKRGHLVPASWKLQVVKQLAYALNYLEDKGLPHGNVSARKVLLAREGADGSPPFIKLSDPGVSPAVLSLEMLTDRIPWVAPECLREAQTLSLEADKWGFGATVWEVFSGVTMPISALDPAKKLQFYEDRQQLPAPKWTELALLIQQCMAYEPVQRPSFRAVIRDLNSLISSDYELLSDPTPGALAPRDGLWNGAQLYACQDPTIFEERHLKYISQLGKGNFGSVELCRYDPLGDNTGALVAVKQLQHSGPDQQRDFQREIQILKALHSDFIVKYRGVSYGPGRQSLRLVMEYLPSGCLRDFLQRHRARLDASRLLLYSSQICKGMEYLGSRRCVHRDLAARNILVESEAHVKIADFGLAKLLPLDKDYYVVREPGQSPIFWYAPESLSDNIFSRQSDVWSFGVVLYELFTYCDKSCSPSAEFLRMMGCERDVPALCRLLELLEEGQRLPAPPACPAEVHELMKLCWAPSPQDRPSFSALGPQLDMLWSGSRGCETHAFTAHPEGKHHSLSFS

T1 sequence (P23458 whole entry): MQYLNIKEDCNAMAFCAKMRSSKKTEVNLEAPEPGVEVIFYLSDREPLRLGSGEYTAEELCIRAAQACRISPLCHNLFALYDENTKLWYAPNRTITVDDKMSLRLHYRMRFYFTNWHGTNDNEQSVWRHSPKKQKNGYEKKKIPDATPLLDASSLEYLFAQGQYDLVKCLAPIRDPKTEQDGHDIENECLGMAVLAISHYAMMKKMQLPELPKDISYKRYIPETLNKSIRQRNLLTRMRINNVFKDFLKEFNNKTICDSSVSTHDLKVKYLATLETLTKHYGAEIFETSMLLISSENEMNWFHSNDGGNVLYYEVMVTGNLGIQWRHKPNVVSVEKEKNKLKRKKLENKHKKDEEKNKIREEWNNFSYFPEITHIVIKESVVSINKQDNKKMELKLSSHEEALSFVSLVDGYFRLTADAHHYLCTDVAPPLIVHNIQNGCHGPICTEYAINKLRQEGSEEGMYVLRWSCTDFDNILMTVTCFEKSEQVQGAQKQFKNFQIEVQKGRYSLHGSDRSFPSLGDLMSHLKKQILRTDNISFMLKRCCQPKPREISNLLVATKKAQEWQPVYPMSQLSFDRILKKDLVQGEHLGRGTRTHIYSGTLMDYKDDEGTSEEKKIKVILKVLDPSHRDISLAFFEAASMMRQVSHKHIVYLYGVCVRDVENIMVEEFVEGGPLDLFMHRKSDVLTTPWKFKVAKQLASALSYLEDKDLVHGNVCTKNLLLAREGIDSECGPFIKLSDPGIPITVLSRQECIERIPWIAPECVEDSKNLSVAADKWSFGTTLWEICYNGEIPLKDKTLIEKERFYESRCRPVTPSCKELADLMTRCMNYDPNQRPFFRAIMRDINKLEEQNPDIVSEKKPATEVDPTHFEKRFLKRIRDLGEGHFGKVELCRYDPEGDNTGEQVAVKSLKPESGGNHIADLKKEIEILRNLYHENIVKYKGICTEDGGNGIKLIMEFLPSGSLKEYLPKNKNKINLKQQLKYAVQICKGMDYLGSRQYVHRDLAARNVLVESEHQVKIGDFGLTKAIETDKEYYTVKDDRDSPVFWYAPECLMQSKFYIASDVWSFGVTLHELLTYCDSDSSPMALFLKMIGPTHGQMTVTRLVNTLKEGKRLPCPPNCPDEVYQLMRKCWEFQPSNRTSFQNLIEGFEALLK

Structure (SMILES) | IC50 (JAK1) | IC50 (JAK2) | IC50 (JAK3)
CN(c1ncnc2[nH]ccc12)[C@H]1CC[C@H](CS(=O)(=O)Nc2ccc3[nH]ccc3c2)CC1 [Example 24, N-1H-indol-5-yl-1-{trans-4-[methyl(7H-pyrrolo[2,3-d]-pyrimidin-4-yl)amino]-cyclohexyl}-methanesulfonamide] | 1.65 nM | 4.55 nM | 55.8 nM
C[C@H](O)CNS(=O)(=O)C[C@H]1CC[C@H](N(C)c2ncnc3[nH]ccc23)CC1 [Example 49, N-[(2S)-2-hydroxypropyl]-1-{trans-4-[methyl(7H-pyrrolo[2,3-d]pyrimidin-4-yl)amino]cyclohexyl}-methanesulfonamide] | 21.4 nM | 64.2 nM | 526 nM
CN(c1ncnc2[nH]ccc12)[C@H]1CC[C@H](CS(=O)(=O)NCCc2ccc(O)cc2)CC1 [Example 3, N-[2-(4-hydroxyphenyl)-ethyl]-1-{trans-4-[methyl-(7H-pyrrolo[2,3-d]pyrimidin-4-yl)amino]cyclohexyl}-methanesulfonamide] | 2.25 nM | 28.6 nM | 257 nM
CN(c1ncnc2[nH]ccc12)[C@H]1CC[C@@H](CS(=O)(=O)NCC2CC2)CC1 [Example 55, N-(cyclopropylmethyl)-1-{cis-4-[methyl(7H-pyrrolo[2,3-d]pyrimidin-4-yl)amino]cyclohexyl}-methanesulfonamide] | 11.4 nM | 34.1 nM | 201 nM
Cc1cc(NS(=O)(=O)C[C@H]2CC[C@H](N(C)c3ncnc4[nH]ccc34)CC2)n[nH]1 [Example 23, N-(5-methyl-1H-pyrazol-3-yl)-1-{trans-4-[methyl(7H-pyrrolo[2,3-d]pyrimidin-4-yl)amino]cyclohexyl}-methanesulfonamide] | 18.6 nM | 30.5 nM | 342 nM
CN(c1ncnc2[nH]ccc12)[C@H]1CC[C@H](CS(=O)(=O)NCCc2cccc(Cl)c2)CC1 [Example 36, N-[2-(3-chlorophenyl)ethyl]-1-{trans-4-[methyl(7H-pyrrolo[2,3-d]pyrimidin-4-yl)amino]cyclohexyl}-methanesulfonamide] | 7.7 nM | 41.4 nM | 294 nM
CN(c1ncnc2[nH]ccc12)[C@H]1CC[C@H](CS(=O)(=O)NCC(O)c2ccc(F)c(F)c2)CC1 (stereo partly drawn) [Example 39, N-[2-(3,4-difluorophenyl)-2-hydroxyethyl]-1-{trans-4-[methyl(7H-pyrrolo[2,3-d]pyrimidin-4-yl)amino]-cyclohexyl}-methanesulfonamide] | 9.79 nM | 30.6 nM | 240 nM
CN(c1ncnc2[nH]ccc12)[C@H]1CC[C@H](CS(=O)(=O)Nc2ccc(C#N)cc2)CC1 [Example 21, N-(4-cyanophenyl)-1-{trans-4-[methyl(7H-pyrrolo[2,3-d]pyrimidin-4-yl)amino]cyclohexyl}-methanesulfonamide] | 10.3 nM | 52.4 nM | 140 nM
Cc1cc(C)nc(CNS(=O)(=O)C[C@H]2CC[C@H](N(C)c3ncnc4[nH]ccc34)CC2)n1 [Example 51, N-[(4,6-dimethylpyrimidin-2-yl)methyl]-1-{trans-4-[methyl(7H-pyrrolo[2,3-d]-pyrimidin-4-yl)amino]cyclohexyl}-methanesulfonamide] | 23.3 nM | 20.2 nM | 237 nM
COc1ccc(NS(=O)(=O)C[C@H]2CC[C@H](N(C)c3ncnc4[nH]ccc34)CC2)cn1 [Example 28, N-(6-methoxypyridin-3-yl)-1-{trans-4-[methyl(7H-pyrrolo[2,3-d]pyrimidin-4-yl)amino]cyclohexyl}methane-sulfonamide] | 8.72 nM | 22.2 nM | 121 nM
COc1cccc(CCNS(=O)(=O)C[C@H]2CC[C@H](N(C)c3ncnc4[nH]ccc34)CC2)c1 [Example 10, N-[2-(3-methoxyphenyl)-ethyl]-1-{trans-4-[methyl-(7H-pyrrolo[2,3-d]pyrimidin-4-yl)amino]cyclohexyl}-methanesulfonamide] | 11 nM | 34.1 nM | 301 nM
CN(c1ncnc2[nH]ccc12)[C@H]1CC[C@H](CS(=O)(=O)NCC(F)(F)c2ccccc2)CC1 [Example 6, N-(2,2-difluoro-2-phenyl-ethyl)-1-{trans-4-[methyl-(7H-pyrrolo[2,3-d]pyrimidin-4-yl)amino]cyclohexyl}-methanesulfonamide] | 4.22 nM | 11.8 nM | 101 nM
CN(c1ncnc2[nH]ccc12)[C@H]1CC[C@H](CS(=O)(=O)Nc2ccc3c(c2)OCCCO3)CC1 [Example 27, N-(3,4-dihydro-2H-1,5-benzodioxepin-7-yl)-1-{trans-4-[methyl(7H-pyrrolo[2,3-d]-pyrimidin-4-yl)amino]-cyclo-hexyl}methanesulfonamide] | 2.19 nM | 7.47 nM | 54.3 nM
CN(CCO)S(=O)(=O)C[C@H]1CC[C@H](N(C)c2ncnc3[nH]ccc23)CC1 [Example 17, N-(2-hydroxyethyl)-N-methyl-1-{trans-4-[methyl-(7H-pyrrolo[2,3-d]pyrimidin-4-yl)amino]cyclohexyl}-methanesulfonamide] | 16.3 nM | 44.2 nM | 332 nM
